Results taken from patent publication US4789661A, “De-(acetylglucosaminyl)-di(dehydro)-deoxy teicoplanin derivatives” (Gruppo Lepetit S.p.A., priority 1985, dated 1988).
Values after ≈ are worked out from the molar mass of the structure shown.

Key:
E. Coli SKF 12140 = test: In vitro antimicrobial activity (MIC), standard dilution test; assay type: cell-based; conditions: inoculum about 10^4 CFU/ml, 18-24 h at 37° C.
Procedure: (§1) Isosensitest broth (Oxoid) and Todd-Hewitt broth (Difco) are used for growing staphylococci and streptococci, respectively. Broth cultures are diluted so that the final inoculum is about 10^4 colony forming units/ml (CFU/ml).

P. vulgaris ATCC 881 = test: as above; assay type: cell-based; conditions: inoculum about 10^4 CFU/ml, 18-24 h at 37° C.
Procedure: as §1

S. aureus ATCC 6538 = test: as above; assay type: cell-based; conditions: inoculum about 10^4 CFU/ml, 18-24 h at 37° C.
Procedure: as §1

S. aureus TOUR = test: as above; assay type: cell-based; conditions: inoculum about 10^4 CFU/ml, 18-24 h at 37° C.
Procedure: as §1

[1] = system: S. epidermidis ATCC 12228; test: as above; assay type: cell-based; conditions: inoculum about 10^4 CFU/ml, 18-24 h at 37° C.
Procedure: as §1

S. faecalis ATCC 7080 = test: as above; assay type: cell-based; conditions: inoculum about 10^4 CFU/ml, 18-24 h at 37° C.
Procedure: as §1

S. pneumoniae UC 41 = test: as above; assay type: cell-based; conditions: inoculum about 10^4 CFU/ml, 18-24 h at 37° C.
Procedure: as §1

S. pyogenes C 203 = test: as above; assay type: cell-based; conditions: inoculum about 10^4 CFU/ml, 18-24 h at 37° C.
Procedure: as §1

[2] = system: experimental infection in mice; test: Experimental infection in mice (V. Arioli et al.); assay type: in vivo
Description: In addition to their antibacterial activity in vitro, the compounds of the invention show also antibacterial activity in in vivo experimetns.

[3] = Acid-base titration (pKMCS) in 2-methoxyethanol/water 4:1; assay type: physicochemical; conditions: potentiometric; 2-methoxyethanol (Methyl Cellosolve)/water 4:1 (v/v)
Procedure: Acid-base titration (pKMCS) were carried out in 2-methoxyethanol (Methyl Cellosolve®) water 4:1 (v/v) solution, with 0.01 NaOH after addition of suitable amounts of 0.01N hcl. The equivalent weights (EW) given are corrected for the solvent content and the inorganic residue.

[4] = system: S. Simulans L 1142 (methicillin-resistant); test: MIC in microtiter against coagulase-negative staphylococci, clinical isolates; assay type: cell-based; conditions: S. Simulans L 1142, methicillin-resistant clinical isolate, Iso-sensitest broth, approximately 10^4 CFU/ml
Procedure: (§2) In a representative experiment, compound III i.e. (35,52-di-dehydro-34-deoxy-teicoplanin aglycon) was tested against some clinically isolated coagulasenegative staphylococi. The results of the test, in comparison with teicoplanin, are reported below in Table VII, The MIC were determined in microtiter using Iso-sensitest broth (Oxoid Co.) and approximately 10^4 CFU/ml as the inoculum.

S. epidermidis L 1378 = test: as above; assay type: cell-based; conditions: S. epidermidis L 1378 clinical isolate, Iso-sensitest broth, approximately 10^4 CFU/ml
Procedure: as §2

[5] = system: S. haemoliticus L 1520 (methicillin-resistant); test: as above; assay type: cell-based; conditions: S. haemoliticus L 1520, methicillin-resistant clinical isolate, Iso-sensitest broth, approximately 10^4 CFU/ml
Procedure: as §2

S. hominis L 1070 = test: as above; assay type: cell-based; conditions: S. hominis L 1070 clinical isolate, Iso-sensitest broth, approximately 10^4 CFU/ml
Procedure: as §2

[6] = system: S. simulans L 785 (methicillin-resistant); test: as above; assay type: cell-based; conditions: S. simulans L 785, methicillin-resistant clinical isolate, Iso-sensitest broth, approximately 10^4 CFU/ml
Procedure: as §2

S. warneri L 1375 = test: as above; assay type: cell-based; conditions: S. warneri L 1375 clinical isolate, Iso-sensitest broth, approximately 10^4 CFU/ml
Procedure: as §2

For “42-α-D-mannosyl-56-N-acyl-β-D-glucosaminyl-35,52-didehydro-34-d eoxy-teicoplanin aglycon [Compound I]”, the MIC (E. Coli SKF 12140) was over 128 µg/mL, the MIC (P. vulgaris ATCC 881) was over 128 µg/mL and the MIC (S. aureus ATCC 6538) was 0.5 µg/mL. It also gave an MIC (S. aureus TOUR) of 0.5 µg/mL, an MIC [1] of 0.25 µg/mL and an MIC (S. faecalis ATCC 7080) of 1 µg/mL. For the same molecule, the MIC (S. pneumoniae UC 41) was 0.06 µg/mL, the MIC (S. pyogenes C 203) was 0.06 µg/mL and the ED50 [2] was 0.35 mg/kg. The “pKmcs (COOH)” value [3] was 5.0 and the “pKmcs (NH2)” value [3] was 6.9.

With `NC1C(=O)NC2Cc3ccc(c(Cl)c3)Oc3cc4cc(c3O)Oc3ccc(cc3Cl)C=C3NC(=O)C(NC(=O)C4NC(=O)C(NC2=O)c2cc(O)cc(c2)Oc2cc1ccc2O)c1ccc(O)c(c1)-c1c(O)cc(O)cc1C(C(=O)O)NC3=O` (single isomer, unassigned) [Compound V, (36,37-trans-51,52-trans)-34,35-didehydro-34-deoxy-teicoplanin-aglycon] the MIC (E. Coli SKF 12140) was over 128 µg/mL, the MIC (P. vulgaris ATCC 881) was over 128 µg/mL and the MIC (S. aureus ATCC 6538) was 2 µg/mL (≈ 1.69 µM). It also gave an MIC (S. aureus TOUR) of 4 µg/mL (≈ 3.39 µM), an MIC [1] of 0.4 µg/mL (≈ 0.339 µM) and an MIC (S. faecalis ATCC 7080) of 16 µg/mL (≈ 13.5 µM). It also gave an MIC (S. pneumoniae UC 41) of 8 µg/mL (≈ 6.77 µM) and an MIC (S. pyogenes C 203) of 8 µg/mL (≈ 6.77 µM).

`NC1C(=O)NC2Cc3ccc(c(Cl)c3)Oc3cc4cc(c3O)Oc3ccc(cc3Cl)CC3=NC(=O)C(NC(=O)C4NC(=O)C(NC2=O)c2cc(O)cc(c2)Oc2cc1ccc2O)c1ccc(O)c(c1)-c1c(O)cc(O)cc1C(C(=O)O)NC3=O` (centres unmarked) [Compound III, 35,52-didehydro-34-deoxy-teicoplanin aglycon] gave an MIC (E. Coli SKF 12140) of over 128 µg/mL, an MIC (P. vulgaris ATCC 881) of over 128 µg/mL and an MIC (S. aureus ATCC 6538) of 0.25 µg/mL (≈ 0.212 µM). The MIC (S. aureus TOUR) was 0.25 µg/mL (≈ 0.212 µM), the MIC [1] was 0.12 µg/mL (≈ 0.102 µM) and the MIC (S. faecalis ATCC 7080) was 1 µg/mL (≈ 0.847 µM). It also gave an MIC (S. pneumoniae UC 41) of 1 µg/mL (≈ 0.847 µM), an MIC (S. pyogenes C 203) of 1 µg/mL (≈ 0.847 µM) and an MIC [4] of 0.125 µg/mL (≈ 0.106 µM). It also gave an MIC (S. epidermidis L 1378) of 0.125 µg/mL (≈ 0.106 µM), an MIC [5] of 0.5 µg/mL (≈ 0.423 µM) and an MIC (S. hominis L 1070) of 0.125 µg/mL (≈ 0.106 µM). It also gave an MIC [6] of 0.125 µg/mL (≈ 0.106 µM), an MIC (S. warneri L 1375) of 1 µg/mL (≈ 0.847 µM) and an ED50 [2] of 5 mg/kg.

For teicoplanin [reference compound], the MIC [4] was 0.125 µg/mL, the MIC (S. epidermidis L 1378) was 0.5 µg/mL and the MIC [5] was 4 µg/mL. The MIC (S. hominis L 1070) was 0.25 µg/mL, the MIC [6] was 0.25 µg/mL and the MIC (S. warneri L 1375) was 2 µg/mL.

`NC1C(=O)NC2Cc3ccc(c(Cl)c3)Oc3cc4cc(c3O)Oc3ccc(cc3Cl)CC3=NC(=O)C(NC(=O)C4NC(=O)C(NC2=O)c2cc(O)cc(c2)Oc2cc1ccc2O)c1ccc(O)c(c1)-c1c(O[C@H]2O[C@H](CO)[C@@H](O)[C@H](O)[C@@H]2O)cc(O)cc1C(C(=O)O)NC3=O` (stereo partly drawn) [Compound II, 42-α-D-mannosyl-35,52-didehydro-34-deoxy-teicoplanin aglycon] showed an MIC (E. Coli SKF 12140) of over 128 µg/mL, an MIC (P. vulgaris ATCC 881) of over 128 µg/mL and an MIC (S. aureus ATCC 6538) of 0.25 µg/mL (≈ 0.186 µM). The MIC (S. aureus TOUR) was 0.25 µg/mL (≈ 0.186 µM), the MIC [1] was 0.5 µg/mL (≈ 0.372 µM) and the MIC (S. faecalis ATCC 7080) was 1 µg/mL (≈ 0.745 µM). For the same molecule, the MIC (S. pneumoniae UC 41) was 2 µg/mL (≈ 1.49 µM), the MIC (S. pyogenes C 203) was 2 µg/mL (≈ 1.49 µM) and the ED50 [2] was 5.8 mg/kg. For the same molecule, the “pKmcs (COOH)” value [3] was 4.8 and the “pKmcs (NH2)” value [3] was 6.9.

With `NC1C(=O)NC2Cc3ccc(c(Cl)c3)Oc3cc4cc(c3O)Oc3ccc(cc3Cl)C=C3NC(=O)C(NC(=O)C4NC(=O)C(NC2=O)c2cc(O)cc(c2)Oc2cc1ccc2O)c1ccc(O)c(c1)-c1c(O)cc(O)cc1C(C(=O)O)NC3=O` (single isomer, unassigned) [Compound IV, (36,37-cis-51,52-trans)-34,35-didehydro-34-deoxy-teicoplanin-aglycon] the MIC (E. Coli SKF 12140) was over 128 µg/mL, the MIC (P. vulgaris ATCC 881) was 128 µg/mL (≈ 108 µM) and the MIC (S. aureus ATCC 6538) was 1 µg/mL (≈ 0.847 µM). For the same molecule, the MIC (S. aureus TOUR) was 1 µg/mL (≈ 0.847 µM), the MIC [1] was 0.12 µg/mL (≈ 0.102 µM) and the MIC (S. faecalis ATCC 7080) was 8 µg/mL (≈ 6.77 µM). The MIC (S. pneumoniae UC 41) was 4 µg/mL (≈ 3.39 µM), the MIC (S. pyogenes C 203) was 4 µg/mL (≈ 3.39 µM) and the “pKmcs (COOH)” value [3] was 4.8. The “pKmcs (NH2)” value [3] was 7.1.

For teicoplanin A2 [reference compound], the “pKmcs (COOH)” value [3] was 5.0 and the “pKmcs (NH2)” value [3] was 7.1.

In the case of `N[C@H]1C(=O)N[C@@H]2Cc3ccc(c(Cl)c3)Oc3cc4cc(c3O)Oc3ccc(cc3Cl)[C@@H](O)[C@@H]3NC(=O)[C@H](NC(=O)[C@@H]4NC(=O)[C@@H](NC2=O)c2cc(O)cc(c2)Oc2cc1ccc2O)c1ccc(O)c(c1)-c1c(O)cc(O)cc1[C@@H](C(=O)O)NC3=O` [deglucoteicoplanin, reference compound], the “pKmcs (COOH)” value [3] is reported as 4.9 and the “pKmcs (NH2)” value [3] is reported as 6.9.
